Literature values as cited in patent US9849088B2, “Depot formulations of a hydrophobic active ingredient and methods for preparation thereof” (PAINREFORM LTD., priority 2012, dated 2017).

Conditions: comparison value

Q: Which Toxic threshold (plasma) does the source give for `CCCN1CCCC[C@H]1C(=O)Nc1c(C)cccc1C` [ropivacaine] here?
A: The Toxic threshold (plasma) was 0.6 µg/mL.
